The target of the assay is T1, c-Myc 363-381 (Homo sapiens, UniProt P01106).
T1 construct: The synthetic peptide c-Myc363-381 is described in Follis; host or cells: synthetic peptide
Briefly: Fluorescence polarization titration, truncated c-Myc peptide 363-381. The following applies: Table 2; segment with binding site of 1; read-out: Binding affinity to c-Myc 363-381. The source says:
A c-Myc353-437 full-length bHLH-ZIP domain and its truncated version c-Myc390-439 were produced from the c-Myc/pET SKB3 construct, kindly supplied by Dr. S. K. Nair (University of Illinois, Urbana-Champaign), by insertion into the pET151D vector, encoding an N-terminal hexahistidine (6× His), separated by a TEV protease digestion site, with the TOPO® ligation system, and over-expressed in E. coli BL21DE3(pLysS). The 6× His tagged human Max isoform p21, with low homodimerization affinity^70, cloned into the pQE10 vector (Qiagen, Inc.), was over-expressed in E. coli M15(pRep4). Bacterial cultures were grown at 37° C. in LB medium to OD600≈0.8, then induced with 0.5 mM IPTG for 5 hours. Proteins were purified by Ni-agarose chromatography with a pH gradient elution. The 6× His tag of c-MYC353-437 and c-Myc390-439 was cleaved using TEV protease (the TEV protease was expressed in a pET24 vector [courtesy of S. K. Nair] and purified by Ni-agarose chromatography under native conditions). All the proteins were further purified by HPLC and lyophilized. Protein concentrations were determined by measurement of OD280. […]
Samples were analyzed in a Photon Technology International QuantaMaster fluorimeter (Birmingham, N.J.) equipped with polymer sheet polarizers. […] Excitation and emission wavelengths were independently determined for each inhibitor. […]

Take `O=C1NC(=S)SC1=Cc1ccc(C(=O)NCCCCCNC(=O)c2ccc(Nc3ccc([N+](=O)[O-])c4nonc34)cc2)cc1` [compound 13]: the Kd came to 800 ± 600 pM.

Source of the values: patent publication US8637556B2, “Linked Myc-max small molecule inhibitors” (University of Pittsburgh—Of the Commonwealth System of …, priority 2009, dated 2014).
